Measurements as given in patent US6834238B1, “Method for identifying optical contrast enhancing agents” (Cytoscan Sciences LLC, priority 1998, dated 2004).

How the values were obtained:
[1] = system: hippocampal slices; test: spontaneous interictal-like bursts in hippocampal slices; assay type: cell-based, rat
[2] = system: acute rat hippocampal slice; test: imaging of intrinsic optical signals in hippocampal slice; assay type: cell-based
Description: For imaging of intrinsic optical signals, the tissue was illuminated with a beam of white light (tungsten filament light and lens system; Dedotec USA, Lodi, N.J.) directed through the microscope condenser. The light was controlled and regulated (power supply: Lambda Electronics, Melville, N.Y.) to minimize fluctuations and filtered (695 nm long-pass) so that the slice was transilluminated with long wavelengths (red). Image frames were acquired with a charge-coupled device camera (Dage-MTI) at 30 Hz and were digitized at 8 bits with a spatial resolution of 512 by 480 pixels by means of an Imaging Technology Series 151 imaging system; gains and offsets of the camera-control box and the analog-to-digital board were adjusted to optimize the sensitivity of the system. […] To increase signal-to-noise ratio, an averaged image was composed from 16 individual image-frames, integrated over 0.5 s and averaged together. […] Pseudocolored images were calculated by subtracting the first control image from subsequently acquired images and assigned a color lookup table to the pixel values. For these images, usually a linear low-pass filter was used to remove high-frequency noise and a linear-histogram stretch was used to map the pixel values over the dynamic range of the system. All operations on these images were linear so that quantitative information was preserved. […]

[3] = system: acute rat hippocampal slice; test: stimulation-evoked afterdischarge, extracellular field recordings in hippocampal slice; assay type: cell-based
Procedure: Sprague-Dawley rats (male and female; 25 to 35 days old) were prepared as described in Aghajanian, A. K. and Rasmussen, K., Synapse 31:331, 1989; and Buckmaster, P. S., Strowbridge, B. W., Schwartzdroin, P. A., J. Neurophysiol. 70:1281, 1993. In most hippocampal slice experiments, simultaneous extracellular field electrode recordings were obtained from CA1 and CA3 areas. For stimulation-evoked afterdischarge (13 slices, 8 animals), the concentration of Mg^2+ in the bathing medium was reduced to 0.9 mM. A bipolar tungsten stimulating electrode was placed on the Schaffer collaterals to evoke synaptically driven field responses in CA1; stimuli consisted to 100 to 300-μs-duration pulses at an intensity of four times population-spike threshold. Afterdischarges were evoked by a 2-s train of such stimuli delivered at 60 Hz. […] In all treatments, perfusion with furosemide-containing medium was begun after a consistent level of bursting had been established.
FIG. 2A1 illustrates that two seconds of electrical stimulation at 60 Hz elicited afterdischarge activity. […] The color bar indicates increasing magnitude of activity-evoked optical changes from the bottom to the top of the bar. The region of maximum optical change (red, yellow) corresponds to the apical and basal dendritic regions of CA1 on either side of the stimulating electrode. FIGS. 2B1-2BC illustrate responses to electrical stimulation following 20 minutes of perfusion with medium containing 2.5 mM furosemide.

[4] = following treatment with furosemide, FIG. 3E

## Nc1ccncc1 [4-AP]
[1]; 200 to 300 μM 4-AP in bathing medium, 4 slices, 2 animals
  spontaneous interictal-like bursts, average: 33 burst/min

## [K+] [K^+]
[1]; 10 mM K+ in bathing medium, 6 slices, 4 animals
  spontaneous interictal-like bursts, average: 81 bursts/min

## NS(=O)(=O)c1cc(C(=O)O)c(NCc2ccco2)cc1Cl [furosemide]
[2]; 20 minutes of perfusion with medium containing 2.5 mM furosemide, FIG. 2BC
  stimulation-evoked optical changes: blocked
[2]; [4]
  intrinsic optical signal (peak optical change during electrical stimulation): blocks
[3]; 20 minutes of perfusion with medium containing 2.5 mM furosemide, 2 s stimulation at 60 Hz, FIG. 2B2
  electrical afterdischarge activity: blocked
[3]; 20 minutes of perfusion with medium containing 2.5 mM furosemide, FIG. 2B1
  field response to the test pulse: hyperexcitable field response (multiple population spikes)
[3]; following 45 minutes of perfusion with normal bathing medium, FIGS. 2C1-2C3
  reversibility of the effect after washout: restoration of the initial response pattern
[3]; [4]
  epileptiform activity during electrical stimulation: blocks
